# Assays:
# Assay in all cases: relative viability (nuclei count vs DMSO), 5 days (fraction); higher = more cells survive
# [1] = compound: COc1cc2ncn(-c3cc(OCc4ccccc4C(F)(F)F)c(C(N)=O)s3)c2cc1OC + N=C(N)NC(=N)NCCc1ccccc1 [Phenformin] (partner 250 µM)
# Summary of the method: (§1)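 Relative viability divides the nuclei count in treated wells by that in vehicle wells. Lung cancer cell lines were seeded in 1536-well plates, dosed by pin tool the next day, and fixed and stained after 5 days in one step with final 0.05% Triton X-100, 1% formaldehyde and 1 ug/ml Hoechst. Dosing was a single drug or a fixed anchor-drug dose plus five library-drug doses (not always all listed) in √10 steps, and values are medians of duplicate plates imaged at 4×.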
# [2] = compound: COc1cc2ncn(-c3cc(OCc4ccccc4C(F)(F)F)c(C(N)=O)s3)c2cc1OC + CC(=O)Nc1cccc(-n2c(=O)n(C3CC3)c(=O)c3c(Nc4ccc(I)cc4F)n(C)c(=O)c(C)c32)c1 [Trametinib] (partner 0.02 µM)
# Summary of the method: as §1
# [3] = compound: COc1cc2ncn(-c3cc(OCc4ccccc4C(F)(F)F)c(C(N)=O)s3)c2cc1OC + O=C(c1cc(Cc2n[nH]c(=O)c3ccccc23)ccc1F)N1CCN(C(=O)C2CC2)CC1 [Olaparib] (partner 8 µM)
# Summary of the method: as §1
# [4] = compound: COc1cc2ncn(-c3cc(OCc4ccccc4C(F)(F)F)c(C(N)=O)s3)c2cc1OC
# Summary of the method: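 Vehicle-anchored 1536-well plates of lung cancer cell lines, held overnight at 37 °C, were pinned with five library-drug doses (not always all listed) spaced by √10. No medium change followed over the next 5 days, after which the cells were fixed, permeabilised and Hoechst-stained together and imaged at 4×. Nuclei were counted with MetaXpress, and viability is treated-well nuclei over vehicle-well nuclei, taken as a median across plates. Plates passed with control CV below 25% and at least one doubling.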
Cell Line,relative viability ([1]; first compound 0.05 µM),relative viability ([1]; first compound 0.1581 µM),relative viability ([1]; first compound 0.5 µM),relative viability ([1]; first compound 1.581 µM),relative viability ([1]; first compound 5 µM),relative viability ([2]; first compound 0.05 µM),relative viability ([2]; first compound 0.1581 µM),relative viability ([2]; first compound 0.5 µM),relative viability ([2]; first compound 1.581 µM),relative viability ([2]; first compound 5 µM),relative viability ([3]; first compound 0.05 µM),relative viability ([3]; first compound 0.1581 µM),relative viability ([3]; first compound 0.5 µM),relative viability ([3]; first compound 1.581 µM),relative viability ([3]; first compound 5 µM),relative viability ([4]; 0.05 µM),relative viability ([4]; 0.1581 µM),relative viability ([4]; 0.5 µM),relative viability ([4]; 1.581 µM),relative viability ([4]; 5 µM)
LCLC-97TM1,0.398,0.492,0.353,0.154,0.148,0.178,0.149,0.148,0.0713,0.0862,0.201,0.222,0.189,0.0731,0.0698,1.1,1.08,0.665,0.132,0.127
HARA,0.469,0.395,0.364,0.0656,0.0542,0.423,,0.609,0.149,0.0917,0.317,,0.261,0.131,0.105,1.01,0.853,0.8,0.176,0.0967
HCC-78,0.851,0.837,0.495,0.446,0.22,0.949,0.54,0.544,0.642,0.682,0.939,0.927,0.645,0.601,0.468,1.03,0.998,0.749,0.623,0.47
NCI-H1666,0.591,0.554,0.337,0.315,0.299,0.837,0.776,0.653,0.455,0.41,0.79,0.786,0.622,0.56,0.466,0.971,0.907,0.74,0.451,0.449
NCI-H2347,0.361,0.374,0.493,0.353,0.277,0.287,0.28,0.299,0.268,0.282,0.491,0.569,0.504,0.513,0.471,1.05,0.932,0.848,0.564,0.501
PC-14,0.501,0.561,0.465,0.119,0.0948,0.555,0.727,0.281,0.053,0.0472,0.216,0.246,0.0786,0.0384,0.0696,0.988,0.923,0.661,0.141,0.0894
NCI-H2023,0.328,0.395,0.229,0.0904,0.0857,0.502,0.501,0.358,0.0995,0.0739,0.416,0.392,0.16,0.0751,0.0692,0.955,1.07,0.566,0.115,0.0893
201T,0.482,0.252,0.413,0.242,0.205,0.707,0.728,0.691,0.647,0.301,0.747,0.83,0.871,0.27,0.246,0.994,1.02,0.995,0.377,0.294
NCI-H1915,0.373,0.361,0.286,0.0964,0.0866,0.227,0.172,0.24,0.117,0.0537,0.232,0.211,0.176,0.108,0.0766,1.01,0.947,0.784,0.132,0.105
NCI-H2009,0.436,0.333,0.192,0.124,0.111,0.248,0.251,0.287,0.129,0.0949,0.604,0.623,0.171,0.107,0.0932,0.909,0.905,0.472,0.232,0.174
BEN,0.262,0.28,0.217,0.218,0.206,1.16,1.03,0.954,0.546,0.52,1.11,1.01,0.636,0.425,0.359,1.01,0.965,0.845,0.396,0.383
PC-3 [JPC-3],0.494,0.501,0.381,0.184,0.187,0.697,0.698,0.536,0.407,0.279,0.955,1.01,0.588,0.424,0.316,1.06,0.985,0.636,0.303,0.296
SK-MES-1,0.559,0.636,0.234,0.197,0.121,0.578,0.623,0.538,0.177,0.228,0.62,0.526,0.309,0.165,0.186,1.02,0.931,0.622,0.194,0.269
NCI-H838,0.72,0.61,0.324,0.139,0.0964,0.518,0.523,0.412,0.192,0.0837,0.491,0.679,0.365,0.0997,0.121,0.971,1.03,0.764,0.176,0.153
NCI-H1355,0.453,0.434,0.358,0.17,0.161,0.274,0.403,0.326,0.176,0.127,0.486,0.671,0.3,0.15,0.128,0.974,0.957,0.534,0.197,0.185
NCI-H1975,0.44,0.392,0.229,0.162,0.113,0.369,0.192,0.182,0.135,0.155,0.464,0.651,0.319,0.168,0.146,1.09,0.902,0.643,0.226,0.17
LK-2,0.423,0.445,0.23,0.187,0.106,0.719,0.457,0.283,0.151,0.145,0.681,0.345,0.215,0.16,0.0981,1.07,1.03,0.446,0.222,0.211
NCI-H727,0.652,0.432,0.372,0.363,0.399,0.431,0.377,0.338,0.385,0.396,0.676,0.672,0.68,0.489,0.535,0.991,0.752,0.687,0.395,0.417

Cell Line,relative viability ([1]; first compound 0.05 µM),relative viability ([1]; first compound 0.1581 µM),relative viability ([1]; first compound 0.5 µM),relative viability ([1]; first compound 1.581 µM),relative viability ([1]; first compound 5 µM),relative viability ([2]; first compound 0.05 µM),relative viability ([2]; first compound 0.1581 µM),relative viability ([2]; first compound 0.5 µM),relative viability ([2]; first compound 1.581 µM),relative viability ([2]; first compound 5 µM),relative viability ([3]; first compound 0.05 µM),relative viability ([3]; first compound 0.1581 µM),relative viability ([3]; first compound 0.5 µM),relative viability ([3]; first compound 1.581 µM),relative viability ([3]; first compound 5 µM),relative viability ([4]; 0.05 µM),relative viability ([4]; 0.1581 µM),relative viability ([4]; 0.5 µM),relative viability ([4]; 1.581 µM),relative viability ([4]; 5 µM)
HCC-366,0.612,0.534,0.301,0.0215,0.0222,0.114,0.35,0.12,0.0256,0.0157,0.204,0.273,0.0764,0.0193,0.0147,1.02,0.927,0.429,0.0311,0.0273
HOP-62,0.67,0.664,0.53,0.15,0.108,0.35,0.284,0.348,0.163,0.136,0.387,0.38,0.302,,0.116,1.03,1.01,0.861,0.336,0.161
NCI-H1944,0.211,0.234,0.174,0.106,0.0856,0.413,0.42,0.337,0.189,0.123,0.415,0.445,0.304,0.152,0.122,1.18,1.03,0.707,0.23,0.141
UMC-11,0.271,0.201,0.158,0.173,0.168,0.543,0.195,0.194,0.156,0.12,0.313,0.293,0.21,0.185,0.159,0.913,0.708,0.329,0.182,0.145
LU99A,1.01,0.865,0.723,0.241,0.174,0.589,0.236,0.343,0.171,0.128,0.241,0.273,0.225,0.152,0.108,0.894,1.08,0.681,0.253,0.203
NCI-H650,0.511,0.458,0.374,0.171,0.205,0.954,0.722,0.6,0.204,0.489,0.367,0.41,0.26,0.15,0.272,0.913,0.961,0.69,0.33,0.349
A-427,0.336,0.277,0.25,0.151,0.0968,0.833,0.52,0.59,0.336,0.187,0.745,0.802,0.54,0.267,0.169,1.05,1,0.886,0.297,0.128
COR-L 105,0.426,0.441,0.353,0.29,0.221,0.446,0.436,0.438,0.353,0.326,0.709,0.687,0.595,0.335,0.369,0.908,0.903,0.654,0.407,0.272
NCI-H441,0.837,0.636,0.196,0.196,0.227,0.537,0.423,0.156,0.133,0.113,0.349,0.34,0.242,0.175,0.146,0.846,0.683,0.209,0.217,0.196
EBC-1,,,,,,,,,,,0.622,0.758,0.217,0.154,0.128,0.924,0.929,0.301,0.19,0.157
NCI-H1648,,,,,,0.488,0.419,0.295,0.293,0.251,0.74,0.596,0.366,0.242,0.261,1.04,0.919,0.404,0.241,0.181
ABC-1,0.239,0.255,0.226,0.172,0.181,,,,,,0.705,0.837,0.64,0.477,0.429,0.807,0.937,0.736,0.311,0.241
NCI-H1563,0.709,0.628,0.65,0.528,0.452,,,,,,,,,,,1.02,0.984,0.888,0.865,0.654
NCI-H1299,,,,,,,,,,,0.962,0.921,0.431,0.223,0.19,1.01,1.02,0.718,0.269,0.318
A549,0.152,0.145,0.0554,0.0361,0.0267,,,,,,0.344,0.215,0.149,0.0485,0.0961,0.987,1.01,0.399,0.0506,0.054
IA-LM,,,,,,,,,,,0.75,0.602,0.123,0.0768,0.0783,0.865,0.81,0.109,0.0808,0.0819
Calu-6,,,,,,,,,,,0.541,0.454,0.172,0.086,0.0935,0.956,0.835,0.268,0.117,0.11

# — the supplement of paper PMC10307832
